Assay results published in patent US20030148963A1 (priority 2000, published 2003).
Read-outs that look alike come from different tables or passages of the source. Marks after values point to notes of the source that are not given here.

Tests used:
[1] = system: S. aureus-induced arthritis
Experimental: NMRI mice of both sexes, 6-8 weeks old, were obtained from B&K Universal AB (Stockholm, Sweden). They were housed in the animal facility of the Department of Rheumatology, University of Göteborg, under standard conditions of light and temperature and fed standard laboratory chow and water ad libitum.
S. aureus LS-1 strain was originally isolated from a swollen joint of a spontaneously arthritic NZB/W mouse. The bacteria were cultured for […] on blood agar plates, replated for another 24 h, washed and kept frozen at −20° C. in PBS containing 5% bovine serum albumin ([…]) and 10% dimethyl sulfoxide ([…]) until used. Before use, the bacterial solution was thawed and washed in PBS. Viable count was done to check the number of bacteria in each bacterial solution mice were given i.v. injections (in the tail vein) of 0.2 ml of bacterial solution
All the mice were monitored individually. Their limbs were inspected visually every day during the experiment. Arthritis was defined as visible joint erytbema and/or swelling of at least one joint. To evaluate the intensity of arthritis, a clinical scoring system of 0 to 3 points for each limb was used (1 point, mild swelling and/or erytema; 2 points, moderate swelling and erythema; 3 points, marked swelling and erytema). The arthritic index was constructed by adding the scores from all four limbs for each animal. Previous study has shown that there is a good correlation between the clinical and histopathological appearance of arthritis. The overall condition of each mouse was evaluated by assessing its weight, general appearance, alertness, and skin abnormalities.

S. aureus LS-1 = experiment: Determination of bacterial growth in kidneys, blood and joints; type: in vivo; details: for Bacterial growth in blood / Bacterial growth in kidney: mean ± SEM
Experimental: On days 3 and 6-7 after S. aureus inoculation blood samples were obtained and the kidneys were aseptically removed. Appropriate dilutions were made and 0.1 ml of tissue suspensions and of whole blood was plated on agar plates containing 5% horse blood. Six days after the inoculation bacterial samples from the talocrural and radiocarpal joints were obtained and plated on agar plates, containing 7.5% sodium chloride. After incubation for 48 h at 37° C. the bacterial colonies were counted and tested for catalase and coagulase activity.

TNF = type: cell-based, NMRI mice; details: 24 h supernatant, mean ± SEM
Experimental: Spleens were obtained from healthy NMRI mice. […] The cells (2×10^61/Ml) were cultured in Iscove's complete medium (10% FCS, 5×10^−5 M 2-mercaptoethanol, 2 mM L-glutamine, and 50 μg/ml gentamicin). […] To determine the proliferative response, the cells were cultured in 96-well plates (Nunc) for 3 days. The cultures were pulsed with 1 μCi of (^3H)TdR (Amersham, Bucks, UK) 12 h before harvest and calculation of TdR uptake in a beta counter. The levels of TNF.- were determined using sandwich enzyme-linked immunosorbent assays (ELISA) kit from R&D Systems Minneapolis, Minn.).

IL-6 [2] = type: cell-based, NMRI mice; details: spleen cells from non-infected in vivo etoposide-treated mice; mean ± SEM, four mice
spleen mononuclear cells = type: cell-based, NMRI mice; details: spleen cells from non-infected mice treated once a day for three days vs controls; FIG. 3
IL-6 [3] = experiment: Serum IL-6 in CII immunized mice (B9 bioassay); type: in vivo, B10.QxDBA/1 female mice; details: serum at end of experiment, mean ± SEM
Experimental: For quantification of serfu CII antibodies, 96-well plates (Nunc, Roskilde, Denmark) were coated overnight at 4° C. with 10 μg/ml of native CII. Standards and samples were diluted in 0.5% BSA-PBS. Biotinylated F(ab/)2 fragments of goat anti-mouse IgG (Jackson ImmunoResearch Laboratories, West Grove, Pa.) was used as secondary antibody. Development was performed using horseradish peroxidase 0.5 μg/ml and 2.5 mg of the enzyme substrate 2,2-azino-bis-(3-ethylbenzothiazoline sulfonic acid) (Sigma) per mal in citrate buffer (pH 4.2), containing 0.0075% H2O2. The absorbance was measured at 405 nm in a SPECTRAmax spectrophotometer (Molecular Devices, Calif.). IFN-γ levels in sera were quantified with an ELISA system previously described (13). Ninety-six well plates (Nunc) were coated with 2 μg/ml of rat anti-mouse IFN-γ mab (Pharmingen, San Diego, Calif.). Sera, recombinant IFN-γ (Genzyme, Cambridge, Mass.), biotinylated antibodies were all diluted in 0.05 M Tris pH 7.4+0.015 M NaCl. A biotinylated anti mouse IFN-γ antibody (2 μg/ml) (Pharmigen) was used as secondary antibody. After incubation with extravidin alkaline phosphatase 0.5 ?g/ml and alkaline phosphatase substrate 1 mg/ml (Sigma) the absorbance was measured at 405 nm. Interleukin 6 (IL-6) levels in serum and supernatants were measured by a bioassay using cell line B13.29, subclone B9, which is dependent on IL-6 for growth. […]

MIP-1α = experiment: Serum MIP-1α in CII immunized mice (ELISA); type: in vivo, B10.QxDBA/1 female mice; details: serum at end of experiment, mean ± SEM
Experimental: Levels of TNF, IL-1b, RANTES, and macrophage inflammatory protein (MIP)-1α were determined using sandwich ELISA from R&D Systems (Minneapolis, Minn.).

peripheral leukocytes = experiment: Peripheral blood cell count in naive mice; type: in vivo; details: 12.5 mg/kg 4 days per week for 4 weeks, 3 days after last treatment
Experimental: Mice were bled from the tail into heparinized tubes at different time-points. The leukocytes were counted in a hemacytometer (Toa Medical Electronics, Kobe, Japan). Fifty microliters of the heparinized blood was analyzed in a FACScan cytometer (Becton Dickinson, San Jose, Calif.) to determine the percentages of lymphocytes, granulocytes, and monocytes. The absolute numbers of different leukocyte subsets were then calculated from the total leukocyte counts.

[4] = Day 3 after 1-2×10^7 CFU S. aureus
[5] = Day 6-7 after 1-2×10^7 CFU S. aureus
[6] = Etoposide-treated (from day 40)

COc1cc([C@@H]2c3cc4c(cc3[C@@H](O[C@@H]3O[C@@H]5CO[C@@H](C)O[C@H]5[C@H](O)[C@H]3O)[C@H]3COC(=O)[C@H]23)OCO4)cc(OC)c1O [Etoposide]
Mortality ([1]; 1-2×10^7 CFU S. aureus, starting four days after inoculation, FIG. 1B): higher mortality than the controls | Weight loss ([1]; S. aureus infected mice vs controls, data not shown): more prominent | Frequency of clinical signs of arthritis ([1]; six days after inoculation, 1-2×10^7 CFU S. aureus, controls 70%): 35% | Mice died ([1]; suboptimal dose of bacteria 1×10^6 CFU, 8 days after inoculation, controls 1 out of 10): 6 out of 10 | Mice with bacteria recovered from joints (S. aureus LS-1; 6 days after inoculation, controls 3 out of 10): 3 out of 8 | Bacterial growth in blood (S. aureus LS-1; [4]): 60 × 10^7 CFU/ml | Bacterial growth in kidney (S. aureus LS-1; [4]): 3 ± 2 × 10^7 CFU | Bacterial growth in blood (S. aureus LS-1; [5]): 290 ± 100 × 10^7 CFU/ml | Bacterial growth in kidney (S. aureus LS-1; [5]): 67 ± 12 × 10^7 CFU | TNF, ConA stimulated (TNF; etoposide 1 μM, four mice): 167 ± 29 pg/mL | TNF, TSST-1 stimulated (TNF; etoposide 1 μM, four mice): 64 ± 20 pg/mL | TNF, ConA stimulated (TNF; etoposide 10 μM): 66 ± 19^b pg/ml | TNF, TSST-1 stimulated (TNF; etoposide 10 μM): 38 ± 8^b pg/ml | TNF, ConA stimulated (TNF; etoposide 100 μM): 10 ± 1^b pg/ml | TNF, TSST-1 stimulated (TNF; etoposide 100 μM): 16 ± 3^b pg/ml | IL-6, ConA stimulated (IL-6 [2]): 455 ± 85^b pg/ml | IL-6, TSST-1 stimulated (IL-6 [2]): 255 ± 66b pg/ml | Proliferative response, Con A stimulated (spleen mononuclear cells): not when stimulated with Con A | Proliferative response, TSST-1 stimulated (spleen mononuclear cells): lower proliferative response | IL-6 (IL-6 [3]; Etoposide-pretreated): 117 ± 21a pg/ml | IL-6 (IL-6 [3]; [6]): 179 ± 21^b pg/ml | MIP-1a (MIP-1α; Etoposide-pretreated): 3.0 ± 0.5^c pg/ml | MIP-1a (MIP-1α; [6]): 2.9 ± 0.3^c pg/ml | Numbers of granulocytes (peripheral leukocytes): 1.1±0.4 ×10^4/ml | Numbers of monocytes (peripheral leukocytes): 71±28 ×10^4/ml
